# Where no end group is shown, it is not given here.
# System: iPS cells (clone name: 201B2 or 201B7)
# Test: AFP dot blotting of iPS cell culture supernatant
# Format: cell-based, human
# Settings: peptide concentration 6.0 μM; 8th to 20th day of culture in the presence of the peptide; FIG. 5
# Procedure: The stem cell differentiation-inducing activities of the differentiation-inducing synthetic peptides (Samples 2-7) obtained in Example 1 above were evaluated by measuring changes over time in AFP expression levels (typically, extracellular excretion levels). AFP is a differentiation marker protein that is known to be in expressed in cells that have differentiated into liver precursor cells in particular of the endodermal cells. iPS cells that had been cultured and passaged in vitro were used as the test cells. The details of the evaluation test are as follows.
# As in Example 3, the peptides of Samples 2 through 7 were added to a peptide concentration of 6.0 μM to added to medium containing cultured iPS cells (clone name: 201B2 or 201B7), and the cells were cultured (Sample Groups 2 through 7). A peptide free-group (comparative example) using cells cultured under the same conditions as in Sample groups 2 through 7 without the addition of a peptide was also established as a control group. […]
# After completion of the antigen-antibody reaction with the secondary antibody, Lumina Crescendo Western HRP Substrate (Merck Millipore Corp.) was dripped on the nitrocellulose membrane to react the substrate with the HRP-labeled antibody (secondary antibody), and the target protein (AFP) was detected with a LAS-3000 luminescent image analyzer (Fuji Film).
substance,measurement,value
RLLLLLLVGLTAPALAKKRTLRKNDRKKR-COOH (RLLLLLLVGLTAPALAKKRTLRKNDRKKR-OH) [Sample 4],amount of AFP in the culture supernatant in comparison with peptide-free group with the same culture time,particularly dramatic
